One data set has as its system HUT78 Sézary cells. Kind of data set: Cell viability, MTT assay, HUT78 cells (with or without cell death inhibitors). The settings on record: 20 h; for effect of pan-caspase inhibitor zVAD-fmk on peptide-induced cytotoxicity: increasing peptide concentrations, 50 μM zVAD-fmk, MTT, n = 3. It is filed as cell-based. (Tetrazolium assays rely on reduction of a dye to a coloured formazan, in cell work by metabolically active cells.)

Another data set has as its system non T-cells, CD3− cells. Put plainly: Ex vivo cell death in Sézary patients' PBMC, 7-AAD flow cytometry, non T-cells. It is filed as cell-based, human. Conditions: increasing concentrations, 4 h, 37 °C, PBMC of three patients. An excerpt:
(§1) SS diagnosis was established on recognized international clinical, histological, and biological criteria. Blood from SS patients with more than 90% of malignant CD4^+ T cells (identified by their TCR-Vβ rearrangement) was collected for the present study, which was approved by the institutional ethics committee (Saint Louis Hospital, Paris. Protocol no. 2011-oct.12735). Peripheral blood mononuclear cells (PBMC) were isolated from heparinized venous blood by density gradient centrifugation over lymphocytes separating medium (LSM; PAA Laboratories, Les Mureaux, France). The Sézary cell line HUT78 was amplified as previously described and cultured in RPMI 1640 supplemented with 2 mM L-glutamine, 1% penicillin-streptomycin (Invitrogen) and 10% heat-inactivated fetal calf serum (Life Technologies). All other cell lines were cultured in DMEM supplemented with 2 mM L-glutamine, 1% penicillin-streptomycin (Invitrogen) and 10% heat-inactivated fetal calf serum (Life Technologies).
(§2) PBMC exposed or not to RT33 or RT33 DR were processed for flow cytometry to assess cell death. Cells were labelled with a mix of anti-TCR-Vβ-FITC, -CD3-PE, and -CD4-PE-Cy7 mAbs (Beckman Coulter). Detection of apoptotic cells was performed using 7 AAD (BD Biosciences). Cells were analyzed on a CytoFlex cytometer (Beckman Coulter) and data treated with FlowJo software.
Background: A flow cytometer gives signals particle by particle.

The subject of data set [1] is non-malignant CD4+ T-cells, CD3+CD4+Vβ− cells. Put plainly: Ex vivo cell death in Sézary patients' PBMC, 7-AAD flow cytometry, non-malignant CD4+ T-cells. The data set is classed as cell-based, human. The settings on record: increasing concentrations, 4 h, 37 °C, PBMC of three patients.
From the text: as §1, §2

In data set [2] the test system is normal (HaCat, MRC-5) cells. Kind of data set: Cell viability, MTT assay, normal cells. The data set is classed as cell-based. The settings on record: increasing concentrations, 20 h, n = 3.
Description: Cells survival was assessed with the CellTiter 96® Aqueous One Solution Cell Proliferation Assay kit (Promega, Madison, WI, USA).
For data set [3], the system named is HUT78 Sézary cells xenograft. Kind of data set: Sub-cutaneous xenograft mouse model for the Sézary syndrome. It is filed as in vivo, NOD/SCID gamma (NSG) mice. The settings on record: 5 mg/kg daily i.p. The text has this: Animal experiments were approved by The University Board Ethics Committee for Experimental Animal Studies (#2303.01). Xenograft tumors were obtained by subcutaneous injection of 10^6 HUT78 cells in the right flank of 8-week-old female NOD-SCID-gamma (NSG) mice, bred and housed under pathogen-free conditions at our animal facility (IUH, Saint Louis Hospital, Paris, France). Treatment started after randomization when tumors were visible and consisted of daily intraperitoneal (i.p.) injection of normal saline or RT33 or RT33 DR in normal saline (n = 5 per group). Tumor volume was measured every other day and calculated as: long axis × short axis^2 × 0.5. Animals were euthanized after 21 days of treatment or when tumor size reached the ethical end point and visceral organs were excised for a gross pathological examination. Tumors were fixed in 4% neutral buffered formalin and embedded in paraffin. Sections (4 µm) were stained with hematoxylin-eosin (H&E) and subjected to microscopic analysis and image recording. Histological analysis was performed at the HistIM facility of Cochin Institute (Paris, France). Slides were imaged using a Lamina multilabel slide scanner (Perkin Elmer).

The text below walks through data of article PMC7408964, “Efficient Therapeutic Delivery by a Novel Cell-Penetrating Peptide Derived from Acinus” (Cancers, 2020).

Where no end group is shown, it is not given here.

On to “AAC-11 specific portion: peptide comprising AAC-11 residues 377 to 399, without CPP (LQYFARGLQVYIRQLRLALQGKT; UniProt Q9BZZ5 377-399, looked up, fragment) [reference compound]”, for which, in the data set with HUT78 Sézary cells (20 µM, MTT assay, n = 3 (Supplementary Figure S4)), the “cell viability, AAC-11 portion alone” value is recorded as “nor the AAC-11 specific portion alone (Supplementary Figure S4) decreased cell viability”.
For RSRSRDRRRK [hAP10], the “cell death / viability of non T-cells (7-AAD+)” value in the data set on non T-cells, CD3− cells is given as “did not induce cell death”. Moreover, the “cell death / viability of non-malignant CD4+ T-cells (7-AAD+)” value in data set [1] was “did not induce cell death”.
For “RSRSRDRRRKLQYFARGLQVYIRQLRLALQGKT [RT33]”, the “cell viability of normal cells” value in data set [2] is recorded as “sparing the normal cells tested”. Moreover, the “cell death / viability of non T-cells (7-AAD+)” value in the data set on non T-cells, CD3− cells is reported as “neither peptide decreased cell viability”. Besides, in the data set with HUT78 Sézary cells, the “effect of pan-caspase inhibitor zVAD-fmk on peptide-induced cytotoxicity” value is “did not block”. The “cell death / viability of non-malignant CD4+ T-cells (7-AAD+)” value in data set [1] is recorded as “neither peptide decreased cell viability”. The “clinical symptoms during the experimental period” value in data set [3] is recorded as “No obvious clinical symptoms”.
On to RSRSRRRRRK [hAP10DR], for which the “cell death / viability of non T-cells (7-AAD+)” value with non T-cells, CD3− cells was “did not induce cell death”. Besides, the “cell death / viability of non-malignant CD4+ T-cells (7-AAD+)” value in data set [1] is given as “did not induce cell death”.
Consider “RSRSRRRRRKLQYFARGLQVYIRQLRLALQGKT [RT33DR]”, for which the “cell viability of normal cells” value in data set [2] is “sparing the normal cells tested”. In addition, in the data set with non T-cells, CD3− cells, the “cell death / viability of non T-cells (7-AAD+)” value is “neither peptide decreased cell viability”. The “effect of pan-caspase inhibitor zVAD-fmk on peptide-induced cytotoxicity” value in the data set with HUT78 Sézary cells was “did not block”. In addition, in data set [1], the “cell death / viability of non-malignant CD4+ T-cells (7-AAD+)” value is on record as “neither peptide decreased cell viability”. In addition, in data set [3], the “clinical symptoms during the experimental period” value was “No obvious clinical symptoms”.
